According to patent US5436254A, “Carbostyril derivatives” (Otsuka Pharmaceutical Company, Ltd., priority 1989, dated 1995):

What follows are compounds tested against V1 receptor (Rattus norvegicus, UniProt P30560) (assay: biochemical). Conditions: not given.
Chain of V1 receptor (P30560 whole entry): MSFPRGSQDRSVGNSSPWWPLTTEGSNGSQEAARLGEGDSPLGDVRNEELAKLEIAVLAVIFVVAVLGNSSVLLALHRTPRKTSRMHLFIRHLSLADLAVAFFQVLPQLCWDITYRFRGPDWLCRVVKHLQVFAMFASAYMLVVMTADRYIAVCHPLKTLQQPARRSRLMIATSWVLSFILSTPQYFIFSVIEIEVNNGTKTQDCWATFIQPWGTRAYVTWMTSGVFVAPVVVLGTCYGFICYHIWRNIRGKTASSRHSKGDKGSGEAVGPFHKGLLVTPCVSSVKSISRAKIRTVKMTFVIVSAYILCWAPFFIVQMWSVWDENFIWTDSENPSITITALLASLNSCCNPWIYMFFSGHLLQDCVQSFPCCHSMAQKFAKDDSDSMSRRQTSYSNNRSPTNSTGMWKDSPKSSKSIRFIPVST
Assay type: binding
`Nc1ccc(S(=O)(=O)NCCCCCOc2ccc(C(=O)N3CCC(N4C(=O)CCc5ccccc54)CC3)cc2)cc1` [Example 264, 1-{1-(4-[5-(4-Aminophenylsulfonyl)aminopentyloxy]benzoyl)-4-piperidinyl}-3,4-dihydrocarbostyril] showed an IC50 of 160 nM. `CS(=O)(=O)NCC(=O)NCCCCCOc1ccc(C(=O)N2CCC(N3C(=O)CCc4ccccc43)CC2)cc1` [Example 310, 1-{1-(4-[5-(2-Methanesulfonylaminoacetylamino)pentyloxy]benzoyl)-4-piperidinyl]-3,4-dihydrocarbostyril] was tested, and the IC50 was 160 nM. For `Nc1ccc(C(=O)NCCCOc2ccc(C(=O)N3CCC(N4C(=O)CCc5ccccc54)CC3)cc2)cc1` [Example 193, 1-{1-[4-(3-(4-Aminobenzoylamino)propoxy)benzoyl]-4-piperidinyl}-3,4-dihydrocarbostyril], the IC50 was 120 nM. `COC(=O)[C@H](CO)NC(=O)CCCOc1ccc(C(=O)N2CCC(N3C(=O)CCc4ccccc43)CC2)cc1` [Example 10, Methyl N-[4-{4-[4-(1,2,3,4-tetrahydro-2-oxo-1-quinolyl)-1-piperidinylcarbonyl]phenoxy}]butanoyl-L-serinate] showed an IC50 of 320 nM. `Cc1ccc(S(=O)(=O)NCCCOc2ccc(C(=O)N3CCC(N4C(=O)CCc5ccccc54)CC3)cc2)cc1` [Example 174, 1-{1-[4-(3-p-Toluenesulfonylaminopropoxy)benzoyl]-4-piperidinyl}-3,4-dihydrocarbostyril] gave an IC50 of 490 nM. `CS(=O)(=O)N1CCN(CCCCOc2ccc(C(=O)N3CCC(N4C(=O)CCc5ccccc54)CC3)cc2)CC1` [Example 159, 1-{1-[4-[4-(4-Methylsulfonyl-1-piperazinyl)butoxy]benzoyl]-4-piperidinyl}-3,4-dihydrocarbostyril] showed an IC50 of 98 nM. `CCN(CC)CC(O)CCCCOc1ccc(C(=O)N2CCC(N3C(=O)CCc4ccccc43)CC2)cc1` (stereo not shown) [Example 144, 1-{1-[4-(6-Diethylamino-5-hydroxyhexyloxy)benzoyl]-4-piperidinyl}-3,4-dihydrocarbostyril] was tested, and the IC50 was 22 nM. In the case of `CSCCC(NC(C)=O)C(=O)NCCCOc1ccc(C(=O)N2CCC(N3C(=O)CCc4ccccc43)CC2)cc1` (stereo not shown) [Example 207, 1-(1-[4-(3-(2-Acetylamino-4-methylthiobutyrylamino)propoxy)benzoyl]-4-piperidinyl}-3,4-dihydrocarbostyril], the IC50 is reported as 70 nM. In the case of `O=C(c1ccc(OCCCCC(O)CN2CCCC2)cc1)N1CCC(N2C(=O)CCc3ccccc32)CC1` (stereo not shown) [Example 202, 1-{1-[4-(5-Hydroxy-6-(1-pyrrolidinyl)hexyloxy)benzoyl]-4-piperidinyl}-3,4-dihydrocarbostyril], the IC50 is reported as 27 nM. `CN(CCCOc1ccc(C(=O)N2CCC(N3C(=O)CCc4ccccc43)CC2)cc1)C(=O)c1ccccc1` [Example 92, 1-[1-{4-[3-(N-Methyl-N-benzoylamino)propoxy]benzoyl}-4-piperidinyl)-3,4-dihydrocarbostyril] gave an IC50 of 1200 nM. Compound `CC[N+](C)(CC)CC(CCCCOc1ccc(C(=O)N2CCC(N3C(=O)CCc4ccccc43)CC2)cc1)OC` (stereo not shown) [Example 301, 1-{1-[4-(5-Methoxy-6-diethylmethylammoniumhexyloxy)benzoyl]-4-piperidinyl}-3,4-dihydrocarbostyril.iodine] has an IC50 of 47 nM. Compound `O=CNCCCOc1ccc(C(=O)N2CCC(N3C(=O)CCc4ccc(F)cc43)CC2)cc1` [Example 145, 1-{1-[4-(3-Formylaminopropoxy)benzoyl]-4-piperidinyl}-7-fluoro-3,4-dihydrocarbostyril] has an IC50 of 170 nM. `O=C(c1ccc(OCCCCCSc2ncccn2)cc1)N1CCC(N2C(=O)CCc3ccccc32)CC1` [Example 279, 1-{1-(4-[5-(2-Pyrimidylthio)pentyloxy]benzoyl)-4-piperidinyl}-3,4-dihydrocarbostyril] showed an IC50 of 180 nM. Compound `O=C(c1ccc(OCCCN2CCN(CC(O)c3ccccc3)CC2)cc1)N1CCC(N2C(=O)CCc3ccccc32)CC1` (stereo not shown) [Example 138, 1-{1-[4-{3-[4-(2-Phenyl-2-hydroxyethyl)-1-piperazinyl]propoxy}benzoyl]-4-piperidinyl}-3,4-dihydrocarbostyril.dioxalate] has an IC50 of 240 nM. With `NC(=O)CCCCOc1ccc(C(=O)N2CCC(N3C(=O)CCc4ccccc43)CC2)cc1` [Example 3, 1-{1-[4-(4-Carbamoylbutoxy)benzoyl]-4-piperidinyl}-3,4-dihydrocarbostyril] the IC50 was 330 nM. `CCN(CC)CC(CCCCOc1ccc(C(=O)N2CCC(N3C(=O)CCc4ccccc43)CC2)cc1)OC(C)=O` (stereo not shown) [Example 305, 1-{1-[4-(5-Acetoxy-6-diethylaminohexyloxy)benzoyl]-4-piperidinyl)-3,4-dihydrocarbostyril] was tested, and the IC50 was 65 nM. For `COc1ccc(C(=O)N2CCC(N3C(=O)CCc4ccc(C)cc43)CC2)c(OC)c1` [Example 81, 7-Methyl-1-[1-(2,4-dimethoxybenzoyl)-4-piperidinyl]-3,4-dihydrocarbostyril], the IC50 was 210 nM. `COc1ccc(C(=O)N2CCC(N3C(=O)CCc4ccccc43)CC2)c(OCCOC(C)=O)c1` [Example 69, 1-{1-[2-(2-Acetoxyethoxy)-4-methoxybenzoyl]-4-piperidinyl}-3,4-dihydrocarbostyril] showed an IC50 of 420 nM. Work on `CCSCCCOc1ccc(C(=O)N2CCC(N3C(=O)CCc4ccccc43)CC2)cc1` [Example 95, 1-{1-[4-(3-Ethylthiopropoxy)benzoyl]-4-piperidinyl}-3,4-dihydrocarbostyril] yielded an IC50 of 960 nM. For `CN(C)CCCCc1ccc(C(=O)N2CCC(N3C(=O)CCc4ccccc43)CC2)cc1` [Example 180, 1-{1-[4-(4-Dimethylaminobutyl)benzoyl]-4-piperidinyl}-3,4-dihydrocarbostyril], the IC50 was 400 nM. With `O=C(N[C@@H](CO)C(=O)NCCCOc1ccc(C(=O)N2CCC(N3C(=O)CCc4ccccc43)CC2)cc1)OCc1ccccc1` [Example 226, 1-[1-{4-(3-(S)-{N-(Benzyloxycarbonyl)seryl}aminopropoxy]benzoyl)-4-piperidinyl]-3,4-dihydrocarbostyril] the IC50 was 480 nM. `CC1CCN(CCCCCOc2ccc(C(=O)N3CCC(N4C(=O)CCc5ccccc54)CC3)cc2)CC1` [Example 242, 1-{1-(4-[5-(4-Methyl-1-piperidinyl)pentyloxy]benzoyl)-4-piperidinyl}-3,4-dihydrocarbostyril] was tested, and the IC50 was 59 nM. For `O=C(NCCCCOc1ccc(C(=O)N2CCC(N3C(=O)CCc4ccccc43)CC2)cc1)C1CCNCC1` [Example 231, 1-[1-(4-[4-(4-Piperidinylcarbonylamino)butoxy]benzoyl)-4-piperidinyl)-3,4-dihydrocarbostyril], the IC50 was 41 nM. `CN(CCc1ccccn1)CC(O)CCCCOc1ccc(C(=O)N2CCC(N3C(=O)CCc4ccccc43)CC2)cc1` (stereo not shown) [Example 300, 1-{1-(4-[5-Hydroxy-6-(N-methyl-N-(2-(2-pyridyl)ethyl)amino)hexyloxy]benzoyl]-4-piperidinyl}-3,4-dihydrocarbostyril] gave an IC50 of 34 nM. `O=C(Nc1ccccc1)N1CCN(CCCOc2ccc(C(=O)N3CCC(N4C(=O)CCc5ccccc54)CC3)cc2)CC1` [Example 135, 1-[1-{4-[3-(4-Anilinocarbonyl-1-piperazinyl)propoxy]benzoyl}-4-piperidinyl]-3,4-dihydrocarbostyril] showed an IC50 of 200 nM. For `NC(=O)C1CCN(C(=O)CCCCCOc2ccc(C(=O)N3CCC(N4C(=O)CCc5ccccc54)CC3)cc2)CC1` [Example 275, 1-{1-(4-[5-(4-Carbamoyl-1-piperidinylcarbonyl)pentyloxy]benzoyl)-4-piperidinyl}-3,4-dihydrocarbostyril], the IC50 was 46 nM. Work on `O=C(c1ccc(OCCCCC(O)CN2CCN(c3ccccc3)CC2)cc1)N1CCC(N2C(=O)CCc3ccccc32)CC1` (stereo not shown) [Example 205, 1-{1-[4-(5-Hydroxy-6-(4-phenyl-1-piperazinyl)hexyloxy)benzoyl]-4-piperidinyl}-3,4-dihydrocarbostyril] yielded an IC50 of 120 nM. In the case of `CCOc1cc(OC)ccc1C(=O)N1CCC(N2C(=O)CCc3ccccc32)CC1` [Example 59, 1-[1-(2-Ethoxy-4-methoxybenzoyl)-4-piperidinyl]-3,4-dihydrocarbostyril], the IC50 is reported as 200 nM. For `O=C(CCl)NCCCCOc1ccc(C(=O)N2CCC(N3C(=O)CCc4ccccc43)CC2)cc1` [Example 228, 1-{1-(4-[4-(2-Chloroacetylamino)butoxy]benzoyl)-4-piperidinyl)-3,4-dihydrocarbostyril], the IC50 was 200 nM. In the case of `O=C(CN1CCN(c2ccccc2)CC1)NCCCCCOc1ccc(C(=O)N2CCC(N3C(=O)CCc4ccccc43)CC2)cc1` [Example 255, 1-{1-(4-[5-(2-(4-Phenyl-1-piperazinyl)acetylamino)pentyloxy]benzoyl)-4-piperidinyl}-3,4-dihydrocarbostyril], the IC50 is reported as 380 nM. `O=C(c1ccc(OCCCCn2cccc2)cc1)N1CCC(N2C(=O)CCc3ccccc32)CC1` [Example 125, 1-[1-{4-[4-(1-pyrrolyl)butoxy]benzoyl}-4-piperidinyl]-3,4-dihydrocarbostyril] gave an IC50 of 590 nM. In the case of `CN(C)c1ccc(C(=O)N2CCC(N3C(=O)CCc4ccccc43)CC2)c(N(C)C)c1` [Example 50, 1-{1-[2,4-Bis(N,N-dimethylamino)benzoyl]-4-piperidinyl}-3,4-dihydrocarbostyril], the IC50 is reported as 400 nM. `CN(C)C(=O)C1CCN(C(=O)CCCCCOc2ccc(C(=O)N3CCC(N4C(=O)CCc5ccccc54)CC3)cc2)CC1` [Example 276, 1-{1-(4-[5-(4-Dimethylaminocarbonyl-1-piperidinylcarbonyl)pentyloxy]benzoyl)-4-piperidinyl}-3,4-dihydrocarbostyril] showed an IC50 of 110 nM. `C[Si](C)(C)c1ccc(C(=O)N2CCC(N3C(=O)CCc4ccccc43)CC2)cc1` [Example 110, 1-[1-(4-Trimethylsilylbenzoyl)-4-piperidinyl]-3,4-dihydrocarbostyril] showed an IC50 of 1300 nM. `CCOc1ccc(C(=O)N2CCC(N3C(=O)CCc4ccc(F)cc43)CC2)c(O)c1` [Example 155, 1-[1-(2-Hydroxy-4-ethoxybenzoyl)-4-piperidinyl]-7-fluoro-3,4-dihydrocarbostyril] was tested, and the IC50 was 57 nM.

Same assay, conditions: [H]3-Arg-vasopressin 2×10^-10 M, rat liver plasma membrane, 37° C., 10 minutes, pH 8.0; read-out: IC50
For “1-[1-(4-Propargylbenzoyl)-4-piperidinyl]-3,4-dihydrocarbostyril [Example 96]”, the IC50 was 600 nM.

Same assay, conditions: read-out: IC50
In the case of `CCOc1ccc(C(=O)N2CCC(n3c(=O)ccc4ccc(F)cc43)CC2)c(OC)c1` [Example 151, 1-[1-(2-Methoxy-4-ethoxybenzoyl)-4-piperidinyl]-7-fluorocarbostyril], the IC50 is reported as 160 nM.
